# Measurements published in patent US20220000816A1, “COMPOSITION AND METHOD OF INHIBITING ACTIVITY OF MINERALOCORTICOID RECEPTOR BY APPLYING IT TO THE SKIN” (AMOREPACIFIC CORPORATION, priority 2018, published 2022).
# Tested on: mineralocorticoid receptor
# Assay: MMTV-luciferase reporter assay of mineralocorticoid receptor activity in CV-1 cells stimulated with dexamethasone
# Type: cell-based
# Conditions: 10 μg/ml compound, after 2 hours dexamethasone (1 nM), cultivated 24 hours, normalized to Renilla luciferase, FIG. 2
# Description: RNA was separated from a CV-1 cell and PCR was performed using reverse transcriptase, so gene expressions of a glucocorticoid receptor (GR) and a mineralocorticoid receptor (MR) were confirmed, and the results are shown in FIG. 1.
# The CV-1 cell was cultivated in a 24-well flat incubator. After 24 hours, the incubating medium was replaced with a 10% charcoal dextran-treated FBS-DMEM, and then after 4 hours, mixed DNA of a MMTV-luciferase reporter plasmid and an internal control group of a pRL-SV-40 plasmid was transfected using TransFast reagent (Promega). After 24 hours, it was treated with 10 μg/ml of the compound (Ramidus AB) represented by Chemical Formula 1-1, and after 2 hours, was treated with dexamethasone (1 nM), and then cultivated for 24 hours. The luciferase activity in the cell lysate was measured using a Dual-Luciferase Reporter Assay System (Promega), and the transfection efficiency was normalized by revising Renilla luciferase activity to measure a relative luciferase activity, and the results are shown in FIG. 2.
smiles,measurement,value
CC(C)c1ccc2c(c1)CC[C@H]1[C@@H](C)C(C(=O)O)CC[C@]21C (stereo partly shown) [Chemical Formula 1-1],relative luciferase activity (activity of the mineralocorticoid receptor by dexamethasone),deteriorated activity of the mineralocorticoid receptor
